# Primed or numbered codes have the meaning given here. [ ]: non-standard residue; d: D form. Cha = N[C@@H](CC1CCCCC1)C(=O)O; IRDye800CW′ = not defined here; AEEA = NCCOCCOCC(=O)O
# Key:
# [1] = system: orthotopic GBM (U-87 MG-luc2 xenograft); assay: NIR fluorescence imaging of orthotopic GBM (dynamic imaging, TBR and MFI); format: in vivo, mice
# Method: All experimental procedures in animals were carried out in accordance with the approval by The Animal Experiments Inspectorate, Denmark. 7-10-week-old female nude mice (strain: Rj:NMRI-Foxn1nu/nu, JANVIER LABS, France) were orthotopically xenografted with U-87 MG-luc2 cells. Prior to any surgical procedure, the animals were anesthetized with Hypnorm (0.315 mg/ml fentanyl, 10 mg/ml fluanisone)+Midazolam (5 mg/ml)+sterile water in the ratio 1:1:2 by subcutaneous injection of 0.01 ml/g body weight of the solution.
# The orthotopic GBM tumor model was established by inoculation of 500.000 cells in 10 μL ice cold PBS in the right hemisphere (1.5 mm lateral and 0.5 mm posterior to the bregma at 2 mm depth) using a stereotaxic frame (KOPF INSTRUMENTS, Tujunga, Calif., USA) with the automated microinjection pump UMP3 (WPI, Sarasota, Fla., USA). The cells were injected over 5 min with the syringe kept in place for further 3 min before retraction. Tumor growth was subsequently monitored on MRI with the BioSpec 7T (Bruker, Billerica, Mass., USA) with axial and coronal T2-weighted sequences. When the tumor size reached 2-17 mm^3, the animals were included in the fluorescence imaging protocol.
# All image acquisition was performed with the Fluobeam system with (Fluosoft version: 2.2.1) (Fluoptics, Grenoble, France). To characterize the in vivo biodistribution and tumor imaging properties, IRDye800-AE344 was administered through tail vein injection into all the GBM bearing mice (n=35) at four different doses: 1 nmol, 3 nmol, 6 nmol, and 12 nmol. Two mice were sacrificed for each time point and the brain was removed and cross sectioned through the tumor for imaging. […] Accordingly, image acquisition was performed at following time points after injection:
# 1 nmol: 0.5 h, 1 h, and 2 h
# 3 nmol: 1 h, 2 h, 3 h, and 5 h
# 6 nmol: 1 h, 3 h, 6 h, and 12 h
# (§1) Images were analyzed and processed in ImageJ 1.52a, NIH, USA. Signal measurements were performed on the raw images generated by the Fluoptics system. Tumor signal was measured as a mean fluorescence intensity of the whole tumor and background signal was measured as the mean of a representative area with no tumor on the contralateral hemisphere. Presented pictures are contrast enhanced in ImageJ with the Contrast Enhancement (Saturated pixels: 0.3%).
# Pathological assessment was used to evaluate the colocalization of the fluorescence signal and cancer cells (sens+spec). The cross sectioned brain specimens from the fluorescence imaging were either paraffin embedded for H&E and IHC staining, or cryostat sectioned for fluorescence microscopy. […]
# Cryostat sectioning was performed by fixation of the specimen in Tissue-Tek O.C.T. on dry ice. The fixed tissue was sliced axially and mounted on slides for immediate fluorescence imaging.
# [2] = target: T1, uPAR (Homo sapiens, UniProt Q03405); assay: In vivo binding specificity (competitive blocking, scrambled probe); parameters: endogenous in cells; species or system mice; details: 3 nmol, 1 h; for signal intensity compared to the active probe: orthotopic GBM
# Method: The target specificity to uPAR was evaluated by two different methods: competitive blocking with the uPAR targeting peptide AE120 ((DChaFsrYLWSG)2-βAK) and IRDye800 conjugated to a scrambled peptide, AE354 (IRDye800CW-Glu-Glu-NH—CH2—CH2—O—CH2—CH2—O—CH2—CO—NH—CH2—CH2—O—CH2—CH2—O—CH2—CO-Asp-Cha-Glu-(D)Ser-(D)Arg-Tyr-Leu-Glu-Ser-OH) with similar peptide length as the active peptide. The competitive blocking dose of 1.4-2.8 mg AE120 was injected intraperitoneally 15-30 min prior to intravenous injection of 3 nmol IRDye800CW-AE344 and imaged at 1 h (n=5). The scrambled peptide was administered at 3 nmol and the animals were imaged after 1 h (n=4).
# as §1
# Target sequence in this assay (Q03405 23-305): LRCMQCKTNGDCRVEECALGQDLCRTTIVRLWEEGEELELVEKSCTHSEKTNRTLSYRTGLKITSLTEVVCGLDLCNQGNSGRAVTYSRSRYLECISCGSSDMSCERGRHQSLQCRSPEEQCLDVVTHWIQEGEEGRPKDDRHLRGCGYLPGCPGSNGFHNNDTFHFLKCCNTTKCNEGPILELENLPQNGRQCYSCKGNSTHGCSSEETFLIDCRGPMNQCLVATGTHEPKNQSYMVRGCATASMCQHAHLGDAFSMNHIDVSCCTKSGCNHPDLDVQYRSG
# [3] = system: orthotopic GBM; assay: Fluorescence-guided resection; format: in vivo, mouse; details: 6 nmol at 3 h, EleVision IR system
# Method: Preoperatively, the tumor was visible on WL and NIR images (FIG. 15 upper panel). The surgeon performed the resection only assisted by WL until the surgeon considered all tumor tissues was removed. […] A video of fluorescence-guided surgery is also available in the online supplementary materials.
# As should be understood from above, in FIG. 15 there is shown fluorescence-guided surgery (6 nmol IRDye800CW-AE344 at 3 h) performed with the EleVision™ IR system. Upper panel: Images were acquired prior to surgery. Middle panel: Pictures were acquired following surgery in white light and clearly visualizes remaining tumor tissue. The signal is more intense compared to upper panel and is due to the fact that the remaining tumor is now more exposed.
# [4] = Photostability under continuous laser exposure; format: physicochemical
# Method: The photostability was evaluated by a factor 2 dilution series with four samples from 0.23-1.8 nM IRDye800-AE344 in 100 μL phosphate buffered saline (PBS) placed in a black 96-well plate. The well was placed in a black box with the Fluobeam mounted in the top at a distance of 23 cm from the well plate. Image acquisition was performed at 0 min, 10 min, 15 min, 20 min, 0.5 h, 1 h, 2 h, 3 h, 6 h, 10 h, 15 h, 24 h. Each dilution sample was normalized to time point 0 and the data from all four samples were pooled.
# [5] = Acute toxicity, liver and kidney histology; parameters: species or system mice; details: mouse, in vivo
# Description: Liver and kidneys: Tissue was formalin fixed and paraffin embedded. Sections of 2-4 um thick were cut and a routine staining panel applied including: H&E, modified sirius, PAS and Masson trichome for both and additional PAS with silver for kidneys and PAS with diastase, iron, reticulin artisan and oxidised orcein for the livers. Livers were immunohistochemically stained, immunohistochemical evaluation on 3 μm thick sections was done using the CK7 antibody from Dako/Agilent, GA619 (clone OV-TL12/30) following the manufacturer's instructions. The staining took place on the Omnis from Agilent utilizing the EnVision Flex+ detection kit (GV800). The primary antibody was diluted using Antibody Diluent (Dako DM830) and were incubated for 20 minutes. The sections were counterstained with hematoxylin.
# [6] = target: T1, uPAR; assay: SPR inhibition of uPAR wt binding to immobilized pro-uPA; details: inhibition of uPAR binding to immobilized pro-uPA S356A, 20° C.
# Method: Covalent immobilization of purified human prouPA^S356A—was accomplished by injecting 12.5 μg/ml protein dissolved in 10 mM sodium acetate (pH 5.0) over a CM5 chip that had been pre-activated with NHS/EDC (N-ethyl-N′[3-[…])propyl]-carbodiimide), aiming at a surface density of >5000 resonance units (RU) corresponding to 100 fmols/mm^2. After coupling the sensorchip was deactivated with 1 M ethanolamine. Binding of purified human uPAR as analyte was measured from 4 nM to 0.25 nM at 20° C. using 10 mM HEPES, 150 mM NaCl, 3 mM EDTA (pH 7.4) containing 0.05% (v/v) surfactant P20 as running buffer at a flow rate of 50 μl/min. […]
# Surface plasmon resonance (SPR) was applied to determine the IC50-value of IRDye800-AE344 on the uPAR·uPA interaction in solution using a Biacore 3000 instrument essentially as described. […] A standard curve was measured in parallel (2-fold dilution of uPAR covering 0.06 nM to 2 nM) including one repeated concentration point at the end to validate the biological integrity of the sensor chip. […] The parent nonamer peptide antagonist AE105 (Asp-Cha-Phe-D-Ser-D-Arg-Tyr-Leu-Trp-Ser-OH) was analyzed in parallel as positive control and the closed uPAR^H47C-N259C was used as negative control as its uPA binding cavity cannot accommodate AE105.
# Target sequence in this assay (Q03405 23-305 limits assumed): as the sequence (Q03405 23-305) above
compound,measurement,setting,value
"CC(C)C[C@H](NC(=O)[C@H](Cc1ccc(O)cc1)NC(=O)[C@@H](CCCNC(=N)N)NC(=O)[C@@H](CO)NC(=O)[C@H](Cc1ccccc1)NC(=O)[C@H](CC1CCCCC1)NC(=O)[C@H](CC(=O)O)NC(=O)COCCOCCNC(=O)COCCOCCNC(=O)[C@H](CCC(=O)O)NC(=O)[C@H](CCC(=O)O)NC(=O)CCCCC[N+]1=C(/C=C/C2=C(Oc3ccc(S(=O)(=O)O)cc3)C(=C/C=C3/N(CCCCS(=O)(=O)[O-])c4ccc(S(=O)(=O)O)cc4C3(C)C)/CCC2)C(C)(C)c2cc(S(=O)(=O)O)ccc21)C(=O)N[C@@H](Cc1c[nH]c2ccccc12)C(=O)N[C@@H](CO)C(=O)O [IRDye800CW-AE344, IRDye800CW-Glu-Glu-O2Oc-O2Oc-Asp-Cha-Phe-D-Ser-D-Arg-Tyr-Leu-Trp-Ser-OH]",background MFI,"[1]; 6 nmol, 1 h",24 a.u.
same,background MFI,"[1]; 6 nmol, 3 h",11 a.u.
same,decrease in background MFI,"[1]; 6 nmol, from 1 h to 3 h",54%
same,visualization of orthotopic GBM through intact brain on NIR imaging,[1]; in vivo cancer imaging,clearly visualized
same,normalized TBR (ref: active probe),[2]; blocked with AE120,0.70
same,tumor-to-background ratio (TBR),[2]; blocked with AE120,4.6
same,normalized TBR (ref: active probe),[2]; probe alone,1.00
same,tumor-to-background ratio (TBR),[2]; probe alone,6.6
same,signal intensity compared to the active probe,[2]; competitive blocking with AE120,lower signal intensity
same,outcome of fluorescence-guided surgery,[3],complete tumor resection
same,preserved fluorescence intensity,[4]; after continuous laser exposure for 1 h,84%
same,preserved fluorescence intensity,[4]; after continuous laser exposure for 2 h,62%
same,pathological assessment of the kidneys and the liver,[5],no pathological findings
EE-O2Oc-O2Oc-DChaFsrYLWS-NH2 [AE347],IC50,[6],5.7 ± 0.5 nM
"IRDye800CW-Glu-Glu-NH—CH2—CH2—O—CH2—CH2—O—CH2—CO—NH—CH2—CH2—O—CH2—CH2—O—CH2—CO-Asp-Cha-Glu-(D)Ser-(D)Arg-Tyr-Leu-Glu-Ser-OH ({IRDye800CW′}-EE[AEEA][AEEA]D[Cha]E[dS][dR]YLES-OH) [IRDye800CW-AE354, reference compound]",normalized TBR values (FIG. 16C),[2]; probe alone,3.4
same,signal intensity compared to the active probe,[2]; probe alone,lower signal intensity

# From patent US20220401585A1, “A UROKINASE PLASMINOGEN ACTIVATOR RECEPTOR-TARGETING PEPTIDE” (RIGSHOSPITALET, priority 2019, published 2022)
